Experimental data reported in ChEMBL document CHEMBL4219209, “Design, synthesis and biological evaluation of novel tetrahydroisoquinoline derivatives as P-glycoprotein-mediated multidrug resistance inhibitors” (Bioorg Med Chem, 2018).
Active and inactive are the calls of the source. No cut-off for these calls is given here.

Each molecule was assayed on K562 (assay: Cytotoxicity against human K562 cells assessed as reduction in cell viability after 48 hrs by MTT assay). Conditions: K562, 48 h.
Type: cell-based
`COc1cc2c(cc1OC)CN(CCn1cc(CNc3ccccc3C(=O)Nc3ccccc3)nn1)CC2` showed an IC50 of 34.3 µM. `COc1ccc(CCN(C)CCCC(C#N)(c2ccc(OC)c(OC)c2)C(C)C)cc1OC` (stereo not drawn) [VERAPAMIL] was tested, and the IC50 was 82.2 µM. In the case of `COc1ccc(CCNC(=O)c2ccccc2NCc2cn(CCN3CCc4cc(OC)c(OC)cc4C3)nn2)cc1OC`, the IC50 is reported as 61.1 µM. With `COc1cc2c(cc1OC)CN(CCn1cc(CNc3ccccc3C(=O)Nc3ccc(F)cc3)nn1)CC2` the IC50 was 61 µM. In the case of `COc1cc2c(cc1OC)CN(CCn1cc(CNc3ccccc3C(=O)NCCc3ccccc3)nn1)CC2`, the IC50 is reported as 42.2 µM. For `COc1cc2c(cc1OC)CN(CCn1cc(CNc3ccccc3C(=O)NCc3ccccc3)nn1)CC2`, the IC50 was 49.6 µM. `COc1cc2c(cc1OC)CN(CCn1cc(CNc3ccccc3C(=O)NC3CCOCC3)nn1)CC2` was tested, and the IC50 was 59.2 µM. With `COc1cc2c(cc1OC)CN(CCn1cc(CNc3ccccc3C(=O)Nc3ccc(F)c(F)c3)nn1)CC2` the IC50 was 87.9 µM. `COc1cc2c(cc1OC)CN(CCn1cc(CNc3ccccc3C(=O)NCC(C)C)nn1)CC2` showed an IC50 of 61.5 µM. With `CCCCc1ccc(NC(=O)c2ccccc2NCc2cn(CCN3CCc4cc(OC)c(OC)cc4C3)nn2)cc1` the IC50 was 75.7 µM.

What follows are molecules tested on K562/A02 (assay: Cytotoxicity against human K562/A02 cells overexpressing P-gp assessed as reduction in cell viability after 48 hrs by MTT assay). Conditions: K562/A02, 48 h.
Type: ADME, cell-based
With `COc1ccc(CCN(C)CCCC(C#N)(c2ccc(OC)c(OC)c2)C(C)C)cc1OC` (stereo not drawn) [VERAPAMIL] the IC50 was 67.2 µM.

Same assay, conditions: K562/A02, 48 h, read-out: IC50
With `COc1cc2c(cc1OC)CN(CCn1cc(CNc3ccccc3C(=O)Nc3ccccc3)nn1)CC2` the IC50 was > 100 µM. `COc1ccc(CCNC(=O)c2ccccc2NCc2cn(CCN3CCc4cc(OC)c(OC)cc4C3)nn2)cc1OC` was tested, and the IC50 was > 100 µM. For `COc1cc2c(cc1OC)CN(CCn1cc(CNc3ccccc3C(=O)Nc3ccc(F)cc3)nn1)CC2`, the IC50 was > 100 µM. With `COc1cc2c(cc1OC)CN(CCn1cc(CNc3ccccc3C(=O)NCCc3ccccc3)nn1)CC2` the IC50 was > 100 µM. In the case of `COc1cc2c(cc1OC)CN(CCn1cc(CNc3ccccc3C(=O)NCc3ccccc3)nn1)CC2`, the IC50 is reported as > 100 µM. For `COc1cc2c(cc1OC)CN(CCn1cc(CNc3ccccc3C(=O)NC3CCOCC3)nn1)CC2`, the IC50 was > 100 µM. `COc1cc2c(cc1OC)CN(CCn1cc(CNc3ccccc3C(=O)Nc3ccc(F)c(F)c3)nn1)CC2` was tested, and the IC50 was > 100 µM. With `COc1cc2c(cc1OC)CN(CCn1cc(CNc3ccccc3C(=O)NCC(C)C)nn1)CC2` the IC50 was > 100 µM. For `CCCCc1ccc(NC(=O)c2ccccc2NCc2cn(CCN3CCc4cc(OC)c(OC)cc4C3)nn2)cc1`, the IC50 was > 100 µM.

Species on record: Homo sapiens
Experiment: Inhibition of P-gp in human K562/A02 cells assessed as potentiation of adriamycin-induced cytotoxicity by measuring fold reduction in adriamycin IC50 at 5 uM after 48 hrs by MTT assay relative to adriamycin alone
Type: cell-based
Conditions: not given
Work on `COc1cc2c(cc1OC)CN(CCn1cc(CNc3ccccc3C(=O)Nc3ccccc3)nn1)CC2` yielded a Ratio IC50 of 2.1. Molecule `COc1ccc(CCN(C)CCCC(C#N)(c2ccc(OC)c(OC)c2)C(C)C)cc1OC` (stereo not drawn) [VERAPAMIL] has a Ratio IC50 of 3.3. `COc1ccc(CCNC(=O)c2ccccc2NCc2cn(CCN3CCc4cc(OC)c(OC)cc4C3)nn2)cc1OC` was tested, and the Ratio IC50 was 1.2. `COc1cc2c(cc1OC)CN(CCn1cc(CNc3ccccc3C(=O)Nc3ccc(F)cc3)nn1)CC2` gave a Ratio IC50 of 3.7. With `COc1cc2c(cc1OC)CN(CCn1cc(CNc3ccccc3C(=O)NCCc3ccccc3)nn1)CC2` the Ratio IC50 was 4.3. `COc1cc2c(cc1OC)CN(CCn1cc(CNc3ccccc3C(=O)NCc3ccccc3)nn1)CC2` showed a Ratio IC50 of 4.5. `COc1cc2c(cc1OC)CN(CCn1cc(CNc3ccccc3C(=O)NC3CCOCC3)nn1)CC2` gave a Ratio IC50 of 8.2. In the case of `COc1cc2c(cc1OC)CN(CCn1cc(CNc3ccccc3C(=O)Nc3ccc(F)c(F)c3)nn1)CC2`, the Ratio IC50 is reported as 3.7. `COc1cc2c(cc1OC)CN(CCn1cc(CNc3ccccc3C(=O)NCC(C)C)nn1)CC2` gave a Ratio IC50 of 1.7. `CCCCc1ccc(NC(=O)c2ccccc2NCc2cn(CCN3CCc4cc(OC)c(OC)cc4C3)nn2)cc1` was tested, and the Ratio IC50 was 15.5.

Species on record: Homo sapiens
Experiment: Inhibition of P-gp in human K562/A02 cells assessed as potentiation of adriamycin-induced cytotoxicity by measuring fold reduction in adriamycin IC50 at 5 uM preincubated for 24 hrs followed by adriamycin addition measured after 48 hrs by MTT assay relative to adriamycin alone
Type: cell-based
Conditions: not given
Molecule `COc1ccc(CCN(C)CCCC(C#N)(c2ccc(OC)c(OC)c2)C(C)C)cc1OC` (stereo not drawn) [VERAPAMIL] has a Ratio IC50 of 4.8.

What follows are molecules tested on K562 (assay: Inhibition of P-gp in human K562 cells assessed as increase in Rh123 accumulation at 5 uM after 2.5 hrs by flow cytometry method). Conditions: not given.
Type: cell-based
For `COc1ccc(CCN(C)CCCC(C#N)(c2ccc(OC)c(OC)c2)C(C)C)cc1OC` (stereo not drawn) [VERAPAMIL], the inhibition was “Active”.

The molecules below were run on K562/A02. Conditions: Homo sapiens, 5 uM.
Description: Inhibition of P-gp in human K562/A02 cells assessed as increase in adriamycin accumulation at 5 uM after 2.5 hrs by flow cytometry method
With `COc1ccc(CCN(C)CCCC(C#N)(c2ccc(OC)c(OC)c2)C(C)C)cc1OC` (stereo not drawn) [VERAPAMIL] the inhibition was “Active”.
